The numbers were not newly measured in patent publication US20260335448A1 (priority 2022, published 2026), which cites them from elsewhere.

One data set deals with West Nile virus. The conditions noted are these: in vitro.
Another data set concerns melanoma. The conditions noted are these: in vitro.
Data set [1] has as its system SARS-COV-2-infected Vero/hSLAM cells. The conditions noted are these: in vitro, at high concentrations.
The next data set concerns glioblastoma. The conditions noted are these: in vitro.
For a further data set, the system named is dengue virus. Conditions: in vitro.
Another data set concerns colon cancer. Conditions: in vitro.
Data set [2] deals with pseudorabies virus.
The subject of the next data set is breast cancer. Conditions: in vitro.
For a further data set, the system named is gastric cancer. The conditions noted are these: in vitro.
The test system of a further data set is ovarian cancer. Conditions: in vitro.
The test system of data set [3] is Venezuelan equine encephalitis virus.
Another data set deals with leukemia. Conditions: in vitro.
In data set [4] the test system is pseudorabies virus. Conditions: in vivo.

Where two headings read alike, the source gives them in different places.

As for ivermectin, the anti-viral activity entry is “activity in vitro” in the data set with West Nile virus; “activity in vitro” in [1]; “activity in vitro” in the data set with dengue virus; “activity in vitro” in the data set with pseudorabies virus [2]; “activity in vitro” in data set [3]; “activity in vitro and in vivo” in the data set with pseudorabies virus [4]. In addition, the anti-tumor activity result in the data set on melanoma, with glioblastoma, with colon cancer, in the data set on breast cancer, in the data set on gastric cancer and in the data set with ovarian cancer was “activity in vitro” throughout. The anti-tumor activity result with leukemia was “activity in vitro”.
